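A five-concentration, 48-hour dose response in 96-well plates underlies each endpoint, interpolated linearly between surrounding concentrations. GI50 marks 50% less growth.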 The source made the active and inactive calls. Cut-off read from the data, not from the text of the source: active = GI50 up to about 1.1 µM and inactive = higher.

The values that follow come from ChEMBL document CHEMBL1201862, “PubChem BioAssay data set” (2004).

Among the test systems are SR; HCC 2998; LOX IMVI; CCRF-CEM; SF-539; CAKI-1; MDA-MB-231; NCI/ADR-RES; A498; HOP-62; SN12C; OVCAR-3; SNB-75; K562; 786-0; OVCAR-8; Hs-578T; HL-60; MDA-N; SK-MEL-28.
Common to all, as to assay: growth of human tumour cells (NCI), 48 h

For `COC(=O)c1ccc(CCC2=CC(=O)C=CC2=O)cc1`, the GI50 is 2.49 µM (inactive) with SR; 16.7 µM (inactive) in the assay on HCC 2998; 6.4 µM (inactive) in the assay with LOX IMVI; 0.603 µM (active) in the assay on CCRF-CEM; 11.5 µM (inactive) in the assay with SF-539; 4.11 µM (inactive) in the assay on CAKI-1. Moreover, the GI50 in the assay with MDA-MB-231 was 19.4 µM (inactive); with NCI/ADR-RES it was 20.7 µM (inactive); with A498, 18.7 µM (inactive); in the assay with HOP-62, 19.1 µM (inactive); in the assay on SN12C, 24.5 µM (inactive); in the assay with OVCAR-3 it was 6.85 µM (inactive). Also, the GI50 in the assay with SNB-75 is 16.3 µM (inactive); in the assay on K562, 2.37 µM (inactive); with 786-0, 2.41 µM (inactive); with OVCAR-8, 17.4 µM (inactive); in the assay on Hs-578T it was 24.8 µM (inactive); in the assay on HL-60 it was 0.728 µM (active). Moreover, the GI50 with MDA-N is 12.5 µM (inactive); in the assay on SK-MEL-28, 9.42 µM (inactive).
Take `C=C1CC2(C)CCC(OC(=O)C3(C)OC3C)C(C)(OC(C)=O)C2CC1=C(C)C` (configuration not stated): the GI50 with SR was > 100 µM (inactive); in the assay with HCC 2998, > 100 µM (inactive); with LOX IMVI it was > 100 µM (inactive); in the assay on CCRF-CEM it was 96.6 µM (inactive); in the assay with SF-539 it was > 100 µM (inactive); in the assay with CAKI-1, > 10 µM (inactive). Further, the GI50 in the assay on MDA-MB-231, in the assay on NCI/ADR-RES, in the assay on A498, in the assay with HOP-62, in the assay on SN12C and in the assay with OVCAR-3 was > 100 µM (inactive) in each case. Moreover, the GI50 is > 100 µM (inactive) in the assay with SNB-75; > 100 µM (inactive) with K562; > 10 µM (inactive) in the assay with 786-0; > 100 µM (inactive) in the assay on OVCAR-8; > 100 µM (inactive) with Hs-578T; 24.9 µM (inactive) with HL-60. Also, the GI50 in the assay on MDA-N and in the assay on SK-MEL-28 was > 100 µM (inactive) each time.
Take `O=c1oc2ccccc2c(Nc2ccc3c(c2)Oc2ccccc2O3)c1[N+](=O)[O-]`: the GI50 in the assay with SR is 38.3 µM (inactive); in the assay with HCC 2998, 28.1 µM (inactive); in the assay on LOX IMVI it was 36.9 µM (inactive); in the assay with CCRF-CEM, 40.3 µM (inactive); in the assay on SF-539, 19.2 µM (inactive); with CAKI-1 it was 54.8 µM (inactive). Further, the GI50 in the assay on MDA-MB-231 is 17.1 µM (inactive); with NCI/ADR-RES it was 27.9 µM (inactive); with A498, 27 µM (inactive); in the assay on HOP-62, 34.9 µM (inactive); in the assay on SN12C, 35.8 µM (inactive); in the assay on OVCAR-3, 24.6 µM (inactive). For the same molecule, the GI50 with SNB-75 is 14.7 µM (inactive); with K562, 51.8 µM (inactive); in the assay on 786-0, 18.9 µM (inactive); with OVCAR-8, 18.8 µM (inactive); in the assay with Hs-578T, 30.1 µM (inactive); with HL-60 it was > 100 µM (inactive). Also, the GI50 is 49.8 µM (inactive) in the assay with MDA-N and 21.2 µM (inactive) with SK-MEL-28.
Regarding `Cc1coc2c1CC1(C)C(CCC(O)C1C)C2` (configuration not stated), the GI50 in the assay on SR, with HCC 2998, in the assay on LOX IMVI, in the assay with CCRF-CEM, in the assay with SF-539 and in the assay with CAKI-1 was > 100 µM (inactive) throughout. Further, the GI50 with MDA-MB-231, in the assay on NCI/ADR-RES, with A498, with HOP-62, in the assay on SN12C and in the assay on OVCAR-3 was > 100 µM (inactive) each time. For the same molecule, the GI50 in the assay on SNB-75, in the assay on K562, in the assay with 786-0, in the assay with OVCAR-8, with Hs-578T and in the assay with HL-60 was > 100 µM (inactive) each time. Moreover, in the assay with MDA-N, the GI50 is > 100 µM (inactive).
Turning to `COc1ccc(-c2nc3cc(C(F)(F)F)ccc3n2CC2CCCN3CCCCC23)cc1` (configuration not stated), the GI50 with SR was 13.3 µM (inactive); with HCC 2998, 12.1 µM (inactive); in the assay on LOX IMVI it was 15 µM (inactive); in the assay on CCRF-CEM, 13.6 µM (inactive); in the assay on SF-539, 16.8 µM (inactive); in the assay on CAKI-1, 21 µM (inactive). Further, the GI50 with MDA-MB-231 was 14.3 µM (inactive); in the assay on NCI/ADR-RES, 14.1 µM (inactive); in the assay on A498, 13.4 µM (inactive); with HOP-62, 18.7 µM (inactive); in the assay with OVCAR-3 it was 16.1 µM (inactive); in the assay on SNB-75, 15.5 µM (inactive). For the same molecule, the GI50 was 14.8 µM (inactive) in the assay on K562; 19.5 µM (inactive) with 786-0; 17.1 µM (inactive) with OVCAR-8; 15.5 µM (inactive) in the assay with Hs-578T; 14.3 µM (inactive) with HL-60; 19.3 µM (inactive) in the assay with MDA-N. Also, the GI50 with SK-MEL-28 is 14.9 µM (inactive).
In the case of `c1ccc(CN2CCN3CCN(CC2)CCN(Cc2ccccc2)CC3)cc1`, the GI50 was 4.08 µM (inactive) with SR; 10.9 µM (inactive) in the assay on HCC 2998; 8.81 µM (inactive) in the assay with LOX IMVI; 6.37 µM (inactive) with CCRF-CEM; 8.26 µM (inactive) in the assay on SF-539; 30.3 µM (inactive) in the assay on CAKI-1. Besides, the GI50 is 5.43 µM (inactive) with MDA-MB-231; > 100 µM (inactive) in the assay on NCI/ADR-RES; 11.7 µM (inactive) in the assay on A498; 14.2 µM (inactive) in the assay with HOP-62; 4.51 µM (inactive) in the assay with SN12C; 7.91 µM (inactive) in the assay on OVCAR-3. The GI50 in the assay with SNB-75 is 4.05 µM (inactive); in the assay on K562, 4 µM (inactive); in the assay on 786-0, 4.57 µM (inactive); in the assay with OVCAR-8, 9.73 µM (inactive); in the assay with Hs-578T, 14.6 µM (inactive); in the assay on HL-60, 2.55 µM (inactive). Also, the GI50 was 3.3 µM (inactive) in the assay with MDA-N and 4.67 µM (inactive) in the assay on SK-MEL-28.
As for `COC1CC(N)C(O)C(C)O1` (configuration not stated), the GI50 in the assay on SR, in the assay on HCC 2998, in the assay on LOX IMVI, in the assay on CCRF-CEM, in the assay with SF-539 and with CAKI-1 was > 100 µM (inactive) in each case. In addition, the GI50 in the assay on MDA-MB-231, with NCI/ADR-RES, in the assay on A498, in the assay with HOP-62, in the assay with SN12C and with OVCAR-3 was > 100 µM (inactive) in each case. Also, the GI50 in the assay on SNB-75, with K562, in the assay on 786-0, in the assay on OVCAR-8, in the assay on Hs-578T and in the assay with HL-60 was > 100 µM (inactive) in each case. The GI50 in the assay on MDA-N and with SK-MEL-28 was > 100 µM (inactive) throughout.
For the molecule `COc1cc(C23OCC(Cc4cc5c(cc42)OCO5)C3CO)cc(OC)c1OC` (configuration not stated), the GI50 in the assay with SR was 0.187 µM (active); in the assay on HCC 2998, 0.24 µM (active); with LOX IMVI, 1.97 µM (inactive); in the assay on CCRF-CEM it was 2.92 µM (inactive); in the assay on SF-539, 2.52 µM (inactive); with CAKI-1 it was 5.79 µM (inactive). For the same molecule, the GI50 in the assay on MDA-MB-231 was 6.4 µM (inactive); in the assay with NCI/ADR-RES, 1.84 µM (inactive); in the assay on A498, 5.61 µM (inactive); with HOP-62 it was 4.34 µM (inactive); with OVCAR-3, 1.46 µM (inactive); with SNB-75, 2.23 µM (inactive). The GI50 in the assay with K562 is 3.89 µM (inactive); in the assay on 786-0, 3.09 µM (inactive); in the assay with OVCAR-8, 4.14 µM (inactive); in the assay with Hs-578T, 18.5 µM (inactive); in the assay with HL-60 it was 2.76 µM (inactive); with MDA-N, 0.402 µM (active). Besides, in the assay on SK-MEL-28, the GI50 is > 100 µM (inactive).
Take `COc1ccc(CSCc2cc(OC)c(OC)c(OC)c2)cc1`: the GI50 with SR is > 100 µM (inactive); with HCC 2998, > 31.6 µM (inactive); in the assay on LOX IMVI it was 28.4 µM (inactive); in the assay on CCRF-CEM, > 100 µM (inactive); with SF-539, > 71.9 µM (inactive); in the assay on CAKI-1, > 100 µM (inactive). Further, the GI50 was > 100 µM (inactive) in the assay with MDA-MB-231; > 31.6 µM (inactive) with NCI/ADR-RES; > 100 µM (inactive) in the assay on A498; > 100 µM (inactive) in the assay with HOP-62; > 86.1 µM (inactive) in the assay with SN12C; > 100 µM (inactive) with OVCAR-3. Also, the GI50 in the assay with SNB-75 was 37.5 µM (inactive); in the assay with K562 it was 33.8 µM (inactive); in the assay on 786-0, > 100 µM (inactive); in the assay with OVCAR-8, > 31.6 µM (inactive); in the assay with Hs-578T it was > 66.4 µM (inactive); in the assay with HL-60 it was 5.92 µM (inactive). Also, the GI50 with MDA-N was 7.26 µM (inactive); with SK-MEL-28, > 100 µM (inactive).
With `c1ccc2c(c1)nc1n2CCNC1`, the GI50 in the assay on SR, in the assay with HCC 2998, in the assay on LOX IMVI, in the assay with CCRF-CEM, in the assay with SF-539 and with CAKI-1 was > 100 µM (inactive) throughout. For the same molecule, the GI50 in the assay on MDA-MB-231 was > 100 µM (inactive); in the assay with NCI/ADR-RES, > 100 µM (inactive); with A498 it was > 100 µM (inactive); with HOP-62 it was > 100 µM (inactive); with SN12C it was > 100 µM (inactive); with OVCAR-3, 63 µM (inactive). Also, the GI50 with SNB-75, with K562, in the assay on 786-0, in the assay with OVCAR-8, in the assay on Hs-578T and in the assay with HL-60 was > 100 µM (inactive) in each case. The GI50 with MDA-N and with SK-MEL-28 was > 100 µM (inactive) each time.
